This note sets out measurements from the NIST ThermoML archive (doi:10.1016/j.jct.2014.05.013).

The conditions of data set [1]: 100 kPa, Liquid, Vibrating tube method.
The nature of data set [2]: wn = mass fraction of the nth substance listed. The following applies: 100 kPa, Liquid, Vibrating tube method.
The nature of data set [3]: refractive index (Na D-line) (dimensionless); wn = mass fraction of the nth substance listed. The note with it: 100 kPa, Liquid, Standard Abbe refractometry.

± gives the expanded uncertainty stated by the source.

In the case of `CNC=O` [N-methylformamide], the mass density was determined as 1007.94 ± 1 kg/m3 in data set [1] (288.15 K), 999.25 ± 1 kg/m3 in data set [1] (298.15 K) and 990.63 ± 1 kg/m3 in data set [1] (308.15 K).

`CNC=O` [N-methylformamide] + O: the mass density in data set [2] (288.15 K, w1 = 0.2) was found to be 1010.26 ± 1 kg/m3; in data set [2] (288.15 K, w1 = 0.4) it was 1019.56 ± 1 kg/m3; in data set [2] (288.15 K, w1 = 0.6), 1023.57 ± 1 kg/m3; in data set [2] (288.15 K, w1 = 0.8) it was 1019.32 ± 1 kg/m3; in data set [2] (288.15 K, w1 = 1) it was 1007.94 ± 1 kg/m3; in data set [2] (298.15 K, w1 = 0.2) it was 1006.21 ± 1 kg/m3. Also, the mass density was 1013.7 ± 1 kg/m3 in data set [2] (298.15 K, w1 = 0.4); 1016.29 ± 1 kg/m3 in data set [2] (298.15 K, w1 = 0.6); 1011.11 ± 1 kg/m3 in data set [2] (298.15 K, w1 = 0.8); 999.25 ± 1 kg/m3 in data set [2] (298.15 K, w1 = 1); 1001.56 ± 1 kg/m3 in data set [2] (308.15 K, w1 = 0.2); 1007.51 ± 1 kg/m3 in data set [2] (308.15 K, w1 = 0.4). The mass density turned out to be 1008.9 ± 1 kg/m3 in data set [2] (308.15 K, w1 = 0.6); 1003.04 ± 1 kg/m3 in data set [2] (308.15 K, w1 = 0.8); 990.63 ± 1 kg/m3 in data set [2] (308.15 K, w1 = 1).

Regarding `[Cl-].[Cs+]` [cesium chloride] + CN(C)C=O, the mass density turned out to be 961.27 ± 1 kg/m3 in data set [2] (288.15 K, w1 = 0.0005); 944.51 ± 1 kg/m3 in data set [2] (298.15 K, w1 = 0.0008); 937.54 ± 1 kg/m3 in data set [2] (308.15 K, w1 = 0.0016). In addition, the refractive index was found to be 1.43298 ± 0.00032 in data set [3] (288.15 K, w1 = 0.0005); 1.4292 ± 0.00032 in data set [3] (298.15 K, w1 = 0.0008); 1.42658 ± 0.00032 in data set [3] (308.15 K, w1 = 0.0016).

On to `[Cl-].[Cs+]` [cesium chloride] + CNC=O, for which the mass density was 1054.35 ± 1.2 kg/m3 in data set [2] (288.15 K, w1 = 0.0585); 1046.14 ± 1.2 kg/m3 in data set [2] (298.15 K, w1 = 0.0599); 1038.58 ± 1.2 kg/m3 in data set [2] (308.15 K, w1 = 0.062). For the same molecule, the refractive index in data set [3] (288.15 K, w1 = 0.0585) worked out at 1.43767 ± 0.00032; in data set [3] (298.15 K, w1 = 0.0599), 1.43465 ± 0.00032; in data set [3] (308.15 K, w1 = 0.062), 1.43161 ± 0.00032.

On to `[Cl-].[Cs+]` [cesium chloride] + NC=O, for which the mass density was determined as 1359.39 ± 1.3 kg/m3 in data set [2] (288.15 K, w1 = 0.2292); 1354.37 ± 1.3 kg/m3 in data set [2] (298.15 K, w1 = 0.2331); 1354.14 ± 1.3 kg/m3 in data set [2] (308.15 K, w1 = 0.2412). The refractive index in data set [3] (288.15 K, w1 = 0.2292) worked out at 1.46286 ± 0.00032; in data set [3] (298.15 K, w1 = 0.2331), 1.46096 ± 0.00032; in data set [3] (308.15 K, w1 = 0.2412), 1.45811 ± 0.00032.

Regarding `[Cl-].[Cs+]` [cesium chloride] + O, the mass density in data set [2] (288.15 K, w1 = 0.646) was found to be 1894.15 ± 1.5 kg/m3; in data set [2] (298.15 K, w1 = 0.6545), 1921.87 ± 1.5 kg/m3; in data set [2] (308.15 K, w1 = 0.6666), 1947.03 ± 1.6 kg/m3. For the same molecule, the refractive index in data set [3] (288.15 K, w1 = 0.646) came out at 1.41803 ± 0.00032; in data set [3] (298.15 K, w1 = 0.6545) it was 1.41971 ± 0.00032; in data set [3] (308.15 K, w1 = 0.6666), 1.42086 ± 0.00032.

Consider `CN(C)C=O` [dimethylformamide], for which the values for the mass density in data set [1] (288.15 K), in data set [1] (298.15 K) and in data set [1] (308.15 K) were 953.53 ± 1 kg/m3, 943.89 ± 1 kg/m3 and 934.39 ± 1 kg/m3, respectively.

Regarding `CN(C)C=O` [dimethylformamide] + O, the mass density in data set [2] (288.15 K, w1 = 0.2) amounted to 1000.62 ± 1 kg/m3; in data set [2] (288.15 K, w1 = 0.4) it was 1003.56 ± 1 kg/m3; in data set [2] (288.15 K, w1 = 0.6), 1001.34 ± 1 kg/m3; in data set [2] (288.15 K, w1 = 0.8), 986.63 ± 1 kg/m3; in data set [2] (288.15 K, w1 = 1), 953.53 ± 1 kg/m3; in data set [2] (298.15 K, w1 = 0.2), 996.32 ± 1 kg/m3. The mass density amounted to 996.99 ± 1 kg/m3 in data set [2] (298.15 K, w1 = 0.4); 992.97 ± 1 kg/m3 in data set [2] (298.15 K, w1 = 0.6); 977.38 ± 1 kg/m3 in data set [2] (298.15 K, w1 = 0.8); 943.89 ± 1 kg/m3 in data set [2] (298.15 K, w1 = 1); 991.45 ± 1 kg/m3 in data set [2] (308.15 K, w1 = 0.2); 990 ± 1 kg/m3 in data set [2] (308.15 K, w1 = 0.4). The mass density in data set [2] (308.15 K, w1 = 0.6) was determined as 984.33 ± 1 kg/m3; in data set [2] (308.15 K, w1 = 0.8), 968.07 ± 1 kg/m3; in data set [2] (308.15 K, w1 = 1) it was 934.39 ± 1 kg/m3.

On to `NC=O` [formamide], for which the figures for the mass density in data set [1] (288.15 K), in data set [1] (298.15 K) and in data set [1] (308.15 K) were 1137.8 ± 1 kg/m3, 1129.18 ± 1 kg/m3 and 1120.75 ± 1 kg/m3, respectively.

As to `NC=O` [formamide] + O, the mass density in data set [2] (288.15 K, w1 = 0.2) amounted to 1030.04 ± 1 kg/m3; in data set [2] (288.15 K, w1 = 0.4) it was 1058.41 ± 1 kg/m3; in data set [2] (288.15 K, w1 = 0.6), 1085.67 ± 1 kg/m3; in data set [2] (288.15 K, w1 = 0.8) it was 1111.83 ± 1 kg/m3; in data set [2] (288.15 K, w1 = 1), 1137.8 ± 1 kg/m3; in data set [2] (298.15 K, w1 = 0.2) it was 1025.59 ± 1 kg/m3. The mass density in data set [2] (298.15 K, w1 = 0.4) was 1052.51 ± 1 kg/m3; in data set [2] (298.15 K, w1 = 0.6), 1078.6 ± 1 kg/m3; in data set [2] (298.15 K, w1 = 0.8) it was 1103.81 ± 1 kg/m3; in data set [2] (298.15 K, w1 = 1), 1129.18 ± 1 kg/m3; in data set [2] (308.15 K, w1 = 0.2), 1020.7 ± 1 kg/m3; in data set [2] (308.15 K, w1 = 0.4) it was 1046.35 ± 1 kg/m3. Also, the mass density is listed as 1071.43 ± 1 kg/m3 in data set [2] (308.15 K, w1 = 0.6); 1095.93 ± 1 kg/m3 in data set [2] (308.15 K, w1 = 0.8); 1120.75 ± 1 kg/m3 in data set [2] (308.15 K, w1 = 1).

Consider `O` [water], for which the mass density in data set [1] (288.15 K) worked out at 999 ± 1 kg/m3.

On to `O` [water] + CN(C)C=O, for which the mass density in data set [2] (288.15 K, w2 = 0) is on record as 999 ± 1 kg/m3.

As for `O` [water] + CNC=O, the mass density in data set [2] (288.15 K, w2 = 0) stood at 999 ± 1 kg/m3.

As for `O` [water] + NC=O, the mass density in data set [2] (288.15 K, w2 = 0) was 999 ± 1 kg/m3.
